In ChEMBL document CHEMBL5104202, “Structure-Uptake Relationship Studies of Oxazolidinones in Gram-Negative ESKAPE Pathogens” (J Med Chem, 2022):

How the values were obtained:
Format in all cases: functional, organism-based
Escherichia coli [1] = test: Antibacterial activity against wild type Escherichia coli assessed as inhibition of bacterial growth
Acinetobacter baumannii [2] = test: Antibacterial activity against efflux pump lacking/recombinant OM pore producing Acinetobacter baumannii assessed as inhibition of bacterial growth
Pseudomonas aeruginosa [3] = test: Antibacterial activity against recombinant OM pore producing Pseudomonas aeruginosa assessed as inhibition of bacterial growth
Escherichia coli [4] = test: Antibacterial activity against recombinant OM pore producing Escherichia coli assessed as inhibition of bacterial growth
Acinetobacter baumannii [5] = test: Antibacterial activity against wild type Acinetobacter baumannii assessed as inhibition of bacterial growth
Escherichia coli [6] = test: Antibacterial activity against efflux pump lacking Escherichia coli assessed as inhibition of bacterial growth
Pseudomonas aeruginosa [7] = test: Antibacterial activity against wild type Pseudomonas aeruginosa assessed as inhibition of bacterial growth
Pseudomonas aeruginosa [8] = test: Antibacterial activity against efflux pump lacking/recombinant OM pore producing Pseudomonas aeruginosa assessed as inhibition of bacterial growth
Acinetobacter baumannii [9] = test: Antibacterial activity against efflux pump lacking Acinetobacter baumannii assessed as inhibition of bacterial growth
Escherichia coli [10] = test: Antibacterial activity against efflux pump lacking/recombinant OM pore producing Escherichia coli assessed as inhibition of bacterial growth
Acinetobacter baumannii [11] = test: Antibacterial activity against recombinant OM pore producing Acinetobacter baumannii assessed as inhibition of bacterial growth
Pseudomonas aeruginosa [12] = test: Antibacterial activity against efflux pump lacking Pseudomonas aeruginosa assessed as inhibition of bacterial growth

Row | Structure (SMILES) | IC50 (Escherichia coli [1]) [µM] | IC50 (Acinetobacter baumannii [2]) [µM] | IC50 (Pseudomonas aeruginosa [3]) [µM] | IC50 (Escherichia coli [4]) [µM] | IC50 (Acinetobacter baumannii [5]) [µM] | IC50 (Escherichia coli [6]) [µM] | IC50 (Pseudomonas aeruginosa [7]) [µM] | IC50 (Pseudomonas aeruginosa [8]) [µM] | IC50 (Acinetobacter baumannii [9]) [µM] | IC50 (Escherichia coli [10]) [µM] | IC50 (Acinetobacter baumannii [11]) [µM] | IC50 (Pseudomonas aeruginosa [12]) [µM]
1 | O=C1O[C@@H](CO)CN1c1ccc(-c2ccc(-c3ccncc3)cc2)c(F)c1 | > 100 | > 100 | > 100 | > 100 | > 100 | > 100 | > 100 | 1 | > 100 | 75.2 | > 100 | 92.1
2 | C[n+]1ccccc1-c1ccc(N2C[C@H](CO)OC2=O)cc1F | > 100 | 33.3 | > 100 | > 100 | > 100 | 72.3 | > 100 | 40.4 | > 100 | 60.4 | > 100 | > 100
3 | COc1ccc(CNC(=O)OC(C)(C)C)cc1OCC#Cc1ccc(N2C[C@H](CO)OC2=O)cc1F | > 100 | 28.7 | > 100 | > 100 | > 100 | 42.9 | > 100 | 46.9 | 72.2 | 44.4 | 42.4 | > 100
4 | O=C1O[C@@H](CO)CN1c1ccc(-c2ccc3ccncc3c2)c(F)c1 | > 100 | > 100 | > 100 | > 100 | > 100 | > 100 | > 100 | 0.1 | > 100 | > 100 | > 100 | > 100
5 | Cc1ccc(-c2ccc(N3C[C@H](CO)OC3=O)cc2F)cc1 | 28 | 1.6 | > 100 | 3.2 | > 100 | 0.3 | > 100 | 3.8 | 2.3 | 0.3 | > 100 | 2.3
6 | O=C1O[C@@H](CO)CN1c1ccc(-c2cnoc2)c(F)c1 | > 100 | 83.4 | > 100 | 56.1 | > 100 | 23.6 | > 100 | 32.9 | 83.4 | 30.6 | > 100 | 22.7
7 | O=C(O)CCCC#Cc1ccc(N2C[C@H](CO)OC2=O)cc1F | > 100 | > 100 | > 100 | > 100 | > 100 | > 100 | > 100 | > 100 | > 100 | > 100 | > 100 | > 100
8 | O=Cc1ccc(-c2ccc(N3C[C@H](CO)OC3=O)cc2F)cc1 | 66.8 | 1.2 | 5.9 | 5 | 18.4 | 0.6 | > 100 | 0.02 | 1.1 | 0.5 | 16.9 | 1.1
9 | COc1ccc(CN)cc1OCC#Cc1ccc(N2C[C@H](CO)OC2=O)cc1F | > 100 | > 100 | > 100 | > 100 | > 100 | > 100 | > 100 | > 100 | > 100 | > 100 | > 100 | > 100
10 | O=C1O[C@@H](CO)CN1c1ccc(-c2ccccc2)c(F)c1 | 18.4 | 1.9 | 13.1 | 2 | 18.4 | 0.4 | > 100 | 1.4 | 2.3 | 0.3 | 5.5 | 2.3
11 | O=C1O[C@@H](CO)CN1c1ccc(-c2ccc3c(c2)OCO3)c(F)c1 | 23 | 1.5 | > 100 | 2.4 | > 100 | 0.3 | > 100 | 0.3 | 2.4 | 0.3 | > 100 | 2.4
12 | N/C(=N/O)c1ccc(-c2ccc(N3C[C@H](CO)OC3=O)cc2F)cc1 | 55.9 | 0.9 | 63.6 | 7.5 | 22.1 | 0.6 | > 100 | 1.8 | 1.2 | 1 | 2.8 | 5.1
13 | O=C1O[C@@H](CO)CN1c1ccc(-c2ccc3cnccc3c2)c(F)c1 | > 100 | 5.6 | > 100 | > 100 | > 100 | > 100 | > 100 | 37.9 | 5.6 | > 100 | > 100 | 67.7
14 | Cc1nn(C)c(C)c1C#Cc1ccc(N2C[C@H](CO)OC2=O)cc1F | > 100 | > 100 | > 100 | 1.2 | > 100 | 86.3 | > 100 | > 100 | > 100 | 3.4 | > 100 | > 100
15 | O=C1O[C@@H](CO)CN1c1ccc(-c2ccnc(N3CCCC3)c2)c(F)c1 | > 100 | 72.4 | > 100 | 4 | 71.9 | 15.4 | > 100 | > 100 | 72.4 | 1.5 | 71.9 | > 100
16 | C[n+]1ccc2ccc(-c3ccc(N4C[C@H](CO)OC4=O)cc3F)cc2c1 | > 100 | 9.4 | > 100 | 21 | > 100 | 5.6 | > 100 | > 100 | 48.6 | 9.6 | 27.4 | > 100
17 | CC(C)(C)Oc1cc(-c2ccc(N3C[C@H](CO)OC3=O)cc2F)cnc1C#N | > 100 | > 100 | > 100 | > 100 | > 100 | > 100 | > 100 | > 100 | > 100 | > 100 | > 100 | > 100
18 | COC(=O)c1cncc(-c2ccc(N3C[C@H](CO)OC3=O)cc2F)c1 | > 100 | 12.1 | > 100 | 4.7 | 83.2 | 2.7 | > 100 | 38.7 | 12.1 | 2.2 | 83.2 | 32.9
19 | CCC[n+]1ccc(-c2ccc(N3C[C@H](CO)OC3=O)cc2F)cc1 | 43.9 | 19.8 | > 100 | 28.3 | > 100 | 12.7 | > 100 | > 100 | 89.7 | 16.6 | 19.8 | > 100
20 | CC(C)c1ccc(-c2ccc(N3C[C@H](CO)OC3=O)cc2F)c(C(C)C)c1 | 99.1 | 8.2 | > 100 | 20.4 | > 100 | 15.9 | > 100 | 22.3 | 17.3 | 6.6 | 77.9 | 49
21 | O=C1O[C@@H](CO)CN1c1ccc(-c2cc(F)cc(F)c2)c(F)c1 | > 100 | > 100 | > 100 | > 100 | > 100 | > 100 | > 100 | > 100 | > 100 | > 100 | > 100 | > 100
22 | O=C(O)CNCC#Cc1ccc(N2C[C@H](CO)OC2=O)cc1F | > 100 | > 100 | > 100 | > 100 | > 100 | > 100 | > 100 | > 100 | > 100 | > 100 | > 100 | > 100
23 | COC(=O)Cn1cc(C#Cc2ccc(N3C[C@H](CO)OC3=O)cc2F)cn1 | > 100 | 62 | > 100 | 52.3 | > 100 | 88.7 | > 100 | > 100 | > 100 | 36.6 | > 100 | > 100
24 | O=C1O[C@@H](CO)CN1c1ccc(-c2ccc(-c3cccnc3)cc2)c(F)c1 | > 100 | > 100 | > 100 | > 100 | > 100 | > 100 | > 100 | > 100 | > 100 | > 100 | > 100 | > 100
25 | NCC#Cc1ccc(N2C[C@H](CO)OC2=O)cc1F | > 100 | > 100 | > 100 | > 100 | > 100 | > 100 | > 100 | > 100 | > 100 | > 100 | > 100 | > 100
26 | CC(C)(C)OC(=O)NCC#Cc1ccc(N2C[C@H](CO)OC2=O)cc1F | > 100 | > 100 | > 100 | 74.3 | > 100 | 83.4 | > 100 | > 100 | > 100 | 64.7 | > 100 | > 100
